From patent publication US20250136553A1, “ACYLSULFONAMIDE KAT6A INHIBITORS” (Olema Pharmaceuticals, Inc., priority 2023, published 2025)

target: human-KAT6A (MYST domain 507-778 aa) (Homo sapiens (Human), UniProt Q92794); assay: KAT6A biochemical assay (TR-FRET); conditions: @ 1 μM; reported where IC50 could not be determined; read-out: Percent inhibition at specific concentration (KAT6A)
Text: TR-FRET based methods were used for assaying compounds of the present invention for KAT6A enzyme inhibitory activity. TR-FRET is a homogeneous proximity assay where Europium-labelled anti-acetyl lysine antibody binds to the acetylated substrate labelled with biotin, which in turn binds to streptavidin-labelled APC fluorescence acceptor. Europium can transfer energy to APC in the complex and the interaction of two dye-labelled binding partners is detected by the energy transfer between a donor and an acceptor dye and the subsequent light emission by the acceptor dye. KAT6A transfer an acetyl group from acetyl CoA to lysine amino acids of histones/target proteins. […] The selected compound of the present invention and enzyme are incubated for 30 min on plate shaker at 300 rpm at 25° C. Next, 5 μL of substrate mix containing histone H4 peptide and acetyl-CoA in assay buffer is added to the plate. The final concentrations of H4 peptide and acetyl-CoA are 200 nM and 600 nM, respectively. Following 60 min reaction at 25° C. on plate shaker at 300 rpm, 5 μL of detection mix containing Europium-labelled anti-acetyl antibody and streptavidin-APC is added to the reaction wells. The plate is further incubated at 25° C. on shaker at 300 rpm and is read in TR-FRET mode (Ex:340 nm; Em: 615 nm and 665 nm) on a plate reader to achieve ˜5-7-fold activity. The percent inhibition was calculated from the ratio of the fluorescence (FL) intensities [(F665/F615)×10000) using the formula […]. IC50 values of the compounds were determined by fitting the dose-response data to sigmoidal curve fitting equation using Graph pad prism software V9.

Sequence of human-KAT6A (MYST domain 507-778 aa) (Q92794 507-778): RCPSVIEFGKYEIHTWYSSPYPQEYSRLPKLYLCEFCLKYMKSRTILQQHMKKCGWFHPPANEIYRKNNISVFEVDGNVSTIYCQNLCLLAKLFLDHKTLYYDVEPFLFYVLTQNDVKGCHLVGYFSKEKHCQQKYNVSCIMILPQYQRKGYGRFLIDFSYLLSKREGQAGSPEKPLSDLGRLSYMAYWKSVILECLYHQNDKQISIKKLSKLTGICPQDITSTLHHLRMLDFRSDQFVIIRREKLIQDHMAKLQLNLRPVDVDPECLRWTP

inhibition at 1 µM | Compound
35% | COc1cccc(OC)c1S(=O)(=O)NC(=O)c1ccc(Cn2cccn2)c(OC)c1OC [Compound 41, 4-((1H-pyrazol-1-yl)methyl)-N-((2,6-dimethoxyphenyl)sulfonyl)-2,3-dimethoxybenzamide]

same assay, conditions: TR-FRET; histone H4 peptide 200 nM, acetyl-CoA 600 nM; read-out: KAT6A IC50

Compound | IC50
COc1cc(C(=O)NS(=O)(=O)c2ccccc2OC)ccc1Cn1cccn1 [Compound 26, N-(2-methoxyphenyl)sulfonyl-3-methoxy-4-(pyrazol-1-ylmethyl)benzamide] | 0.025 µM
COc1cccc(OC)c1S(=O)(=O)NC(=O)c1ccc(Cn2cccn2)c(C2CC2)c1 [Compound 28, 4-((1H-pyrazol-1-yl)methyl)-3-cyclopropyl-N-((2,6-dimethoxyphenyl)sulfonyl)benzamide] | 0.019 µM
COc1cc(C(=O)NS(=O)(=O)c2ccc(C(F)(F)F)cc2OC)ccc1Cn1cccn1 [Compound 31, 4-((1H-pyrazol-1-yl)methyl)-3-methoxy-N-((2-methoxy-4-(trifluoromethyl)phenyl)sulfonyl)benzamide] | 0.044 µM
COc1cccc(OC)c1S(=O)(=O)NC(=O)c1ccc(Cn2cccn2)c(C)c1 [Compound 34, 4-((1H-pyrazol-1-yl)methyl)-N-((2,6-dimethoxyphenyl)sulfonyl)-3-methylbenzamide] | 0.036 µM
COc1cccc(OC)c1S(=O)(=O)NC(=O)c1ccc(Cn2cccn2)c(C(F)(F)F)c1 [Compound 35] | 0.03 µM
COc1cc(C(=O)NS(=O)(=O)c2c(OC)cccc2-n2cccn2)ccc1Cn1cccn1 [Compound 36, 4-((1H-pyrazol-1-yl)methyl)-3-methoxy-N-((2-methoxy-6-(1H-pyrazol-1-yl)phenyl)sulfonyl)benzamide] | 0.198 µM
COc1cc(C(=O)NS(=O)(=O)c2cc(O)ccc2OC)ccc1Cn1cccn1 [Compound 39, 4-((1H-pyrazol-1-yl)methyl)-N-((5-hydroxy-2-methoxyphenyl)sulfonyl)-3-methoxybenzamide] | 0.024 µM
COc1cc(C(=O)NS(=O)(=O)c2c(OC)cccc2OC)c(OC)cc1Cn1cccn1 [Compound 48, 4-((1H-pyrazol-1-yl)methyl)-N-((2,6-dimethoxyphenyl)sulfonyl)-2,5-dimethoxybenzamide] | 0.051 µM
COc1cc(C(=O)NS(=O)(=O)c2c(OC)cccc2OC)ccc1COc1ncccn1 [Compound 50, N-((2,6-dimethoxyphenyl)sulfonyl)-3-methoxy-4-((pyrimidin-2-yloxy)methyl)benzamide] | 0.096 µM
COc1cc(C(=O)NS(=O)(=O)c2ccccc2OC(F)F)ccc1Cn1cccn1 [Compound 51, 4-((1H-pyrazol-1-yl)methyl)-N-((2-(difluoromethoxy)phenyl)sulfonyl)-3-methoxybenzamide] | 0.051 µM
COc1cc(C(=O)NS(=O)(=O)c2ccccc2OCc2ccccn2)ccc1Cn1cccn1 [Compound 53, 4-((1H-pyrazol-1-yl)methyl)-3-methoxy-N-((2-(pyridin-2-ylmethoxy)phenyl)sulfonyl)benzamide] | 0.031 µM

Results, then the compound that gave them:

IC50 | Compound
0.018 µM | COc1cc(OC)c(S(=O)(=O)NC(=O)c2ccc(Cn3cccn3)c(OC)c2)cc1F [Compound 43, 4-((1H-pyrazol-1-yl)methyl)-N-((5-fluoro-2,4-dimethoxyphenyl)sulfonyl)-3-methoxybenzamide]
0.016 µM | COc1cc(C(=O)NS(=O)(=O)c2cc(C(F)(F)F)ccc2OC)ccc1Cn1cccn1 [Compound 32, 4-((1H-pyrazol-1-yl)methyl)-3-methoxy-N-((2-methoxy-5-(trifluoromethyl)phenyl)sulfonyl)benzamide]
0.015 µM | COc1cccc(OC)c1S(=O)(=O)NC(=O)c1ccc(Cn2cccn2)c(C2CC2)c1F [Compound 40, 4-((1H-pyrazol-1-yl)methyl)-3-cyclopropyl-N-((2,6-dimethoxyphenyl)sulfonyl)-2-fluorobenzamide]
0.012 µM | COc1cc(C(=O)NS(=O)(=O)c2cc3c(cc2OC)CCC3)ccc1Cn1cccn1 [Compound 27, 4-((1H-pyrazol-1-yl)methyl)-3-methoxy-N-((6-methoxy-2,3-dihydro-1H-inden-5-yl)sulfonyl)benzamide]
0.012 µM | COc1cc(C(=O)NS(=O)(=O)c2c(OC)ccc(Cl)c2OC)ccc1Cn1cccn1 [Compound 46, 4-((1H-pyrazol-1-yl)methyl)-N-((3-chloro-2,6-dimethoxyphenyl)sulfonyl)-3-methoxybenzamide]
0.011 µM | CCc1ccc(OC)c(S(=O)(=O)NC(=O)c2ccc(Cn3cccn3)c(OC)c2)c1 [Compound 30, 4-((1H-pyrazol-1-yl)methyl)-N-((5-ethyl-2-methoxyphenyl)sulfonyl)-3-methoxybenzamide]
0.01 µM | COc1ccc(C(C)(C)C)cc1S(=O)(=O)NC(=O)c1ccc(Cn2cccn2)c(C(F)(F)F)c1 [Compound 25, 4-((1H-pyrazol-1-yl)methyl)-N-((5-(tert-butyl)-2-methoxyphenyl)sulfonyl)-3-(trifluoromethyl)benzamide]
0.01 µM | COc1cc(C(=O)NS(=O)(=O)c2cc(C3CC3)ccc2OC)ccc1Cn1cccn1 [Compound 29, 4-((1H-pyrazol-1-yl)methyl)-N-((5-cyclopropyl-2-methoxyphenyl)sulfonyl)-3-methoxybenzamide]
0.01 µM | COc1cccc(OC)c1S(=O)(=O)NC(=O)c1ccc(Cn2cccn2)c(OC(F)(F)F)c1 [Compound 33, 4-((1H-pyrazol-1-yl)methyl)-N-((2,6-dimethoxyphenyl)sulfonyl)-3-(trifluoromethoxy)benzamide]
0.01 µM | COc1cccc(OC)c1S(=O)(=O)NC(=O)c1ccc(Cn2cccn2)c(OC(F)F)c1 [Compound 37, 4-((1H-pyrazol-1-yl)methyl)-3-(difluoromethoxy)-N-((2,6-dimethoxyphenyl)sulfonyl)benzamide]
0.01 µM | COc1cc(OC)c(S(=O)(=O)NC(=O)c2ccc(Cn3cccn3)c(OC)c2)cc1Br [Compound 45, N-(5-bromo-2,4-dimethoxy-phenyl)sulfonyl-3-methoxy-4-(pyrazol-1-ylmethyl)benzamide]
0.009 µM | COc1cc(OC)c(S(=O)(=O)NC(=O)c2ccc(Cn3cccn3)c(OC)c2)cc1Cl [Compound 44, 4-((1H-pyrazol-1-yl)methyl)-N-((5-chloro-2,4-dimethoxyphenyl)sulfonyl)-3-methoxybenzamide]
0.009 µM | COc1cc(OC)c(S(=O)(=O)NC(=O)c2ccc(Cn3cccn3)c(OC)c2)c(OC)c1 [Compound 47, 4-((1H-pyrazol-1-yl)methyl)-3-methoxy-N-((2,4,6-trimethoxyphenyl)sulfonyl)benzamide]
0.009 µM | COc1cc(C(=O)NS(=O)(=O)c2c(OC)cccc2OC2CC2)ccc1Cn1cccn1 [Compound 52, 4-((1H-pyrazol-1-yl)methyl)-N-((2-cyclopropoxy-6-methoxyphenyl)sulfonyl)-3-methoxybenzamide]
0.008 µM | COc1ccc(S(=O)(=O)NC(=O)c2ccc(Cn3cccn3)c(OC)c2)c(OC)c1 [Compound 42, 4-((1H-pyrazol-1-yl)methyl)-N-((2,4-dimethoxyphenyl)sulfonyl)-3-methoxybenzamide]
0.008 µM | COc1cccc(OC)c1S(=O)(=O)NC(=O)c1ccc(Cn2cccn2)c(Br)c1F [Compound 49, 4-((1H-pyrazol-1-yl)methyl)-3-bromo-N-((2,6-dimethoxyphenyl)sulfonyl)-2-fluorobenzamide]
